Data: ChEMBL document CHEMBL4251615, “Discovery of anilino-furo[2,3-d]pyrimidine derivatives as dual inhibitors of EGFR/HER2 tyrosine kinase and their anticancer activity” (Eur J Med Chem, 2018)

Experiments:
HOP-92 = test: Growth inhibition of human HOP92 cells assessed as cell growth at 10 uM incubated for 48 hrs by sulforhodamine B assay relative to control; type: functional; settings: HOP-92, 48 h, read-out: Activity
T47D = test: Growth inhibition of human T47D cells assessed as cell growth at 10 uM incubated for 48 hrs by sulforhodamine B assay relative to control; type: functional; settings: read-out: Activity
NCI/ADR-RES = test: Growth inhibition of human NCI/ADR-RES cells assessed as cell growth at 10 uM incubated for 48 hrs by sulforhodamine B assay relative to control; type: functional; settings: read-out: Activity
U-251 = test: Growth inhibition of human U251 cells assessed as cell growth at 10 uM incubated for 48 hrs by sulforhodamine B assay relative to control; type: functional; settings: U-251, 48 h, read-out: Activity
OVCAR-3 = test: Growth inhibition of human OVCAR3 cells assessed as cell growth at 10 uM incubated for 48 hrs by sulforhodamine B assay relative to control; type: functional; settings: OVCAR-3, 48 h, read-out: Activity
SNB-75 = test: Growth inhibition of human SNB75 cells assessed as cell growth at 10 uM incubated for 48 hrs by sulforhodamine B assay relative to control; type: functional; settings: SNB-75, 48 h, read-out: Activity
[1] = target: Receptor tyrosine-protein kinase erbB-2 (Homo sapiens) (UniProt P04626); test: Inhibition of recombinant human N-terminal GST-tagged HER2 (679 to 1255 residues) expressed in baculovirus infected Sf9 cells at 10 uM using poly[Glu:Tyr] (4:1) as substrate after 40 mins by Kinase-Glo plus luminescence assay relative to control
RPMI-8226 = test: Growth inhibition of human RPMI8226 cells assessed as cell growth at 10 uM incubated for 48 hrs by sulforhodamine B assay relative to control; type: functional; settings: RPMI-8226, 48 h, read-out: Activity
CAKI-1 = test: Growth inhibition of human Caki1 cells assessed as cell growth at 10 uM incubated for 48 hrs by sulforhodamine B assay relative to control; type: functional; settings: CAKI-1, 48 h, read-out: Activity
OVCAR-4 = test: Growth inhibition of human OVCAR4 cells assessed as cell growth at 10 uM incubated for 48 hrs by sulforhodamine B assay relative to control; type: functional; settings: OVCAR-4, 48 h, read-out: Activity
SK-MEL-28 = test: Growth inhibition of human SK-MEL-28 cells assessed as cell growth at 10 uM incubated for 48 hrs by sulforhodamine B assay relative to control; type: functional; settings: SK-MEL-28, 48 h, read-out: Activity
MDA-MB-435 = test: Growth inhibition of human MDA-MB-435 cells assessed as cell growth at 10 uM incubated for 48 hrs by sulforhodamine B assay relative to control; type: functional; settings: MDA-MB-435, 48 h, read-out: Activity
PC-3 = test: Growth inhibition of human PC3 cells assessed as cell growth at 10 uM incubated for 48 hrs by sulforhodamine B assay relative to control; type: functional; settings: PC-3, 48 h, read-out: Activity
KM12 = test: Growth inhibition of human KM12 cells assessed as cell growth at 10 uM incubated for 48 hrs by sulforhodamine B assay relative to control; type: functional; settings: KM12, 48 h, read-out: Activity
DU-145 = test: Growth inhibition of human DU145 cells assessed as cell growth at 10 uM incubated for 48 hrs by sulforhodamine B assay relative to control; type: functional; settings: DU-145, 48 h, read-out: Activity
HCT-116 = test: Growth inhibition of human HCT116 cells assessed as cell growth at 10 uM incubated for 48 hrs by sulforhodamine B assay relative to control; type: functional; settings: HCT-116, 48 h, read-out: Activity
Malme-3M = test: Growth inhibition of human MALME-3M cells assessed as cell growth at 10 uM incubated for 48 hrs by sulforhodamine B assay relative to control; type: functional; settings: read-out: Activity
SW-620 = test: Growth inhibition of human SW620 cells assessed as cell growth at 10 uM incubated for 48 hrs by sulforhodamine B assay relative to control; type: functional; settings: SW-620, 48 h, read-out: Activity
TK-10 = test: Growth inhibition of human TK10 cells assessed as cell growth at 10 uM incubated for 48 hrs by sulforhodamine B assay relative to control; type: functional; settings: TK-10, 48 h, read-out: Activity
SK-MEL-5 = test: Growth inhibition of human SK-MEL-5 cells assessed as cell growth at 10 uM incubated for 48 hrs by sulforhodamine B assay relative to control; type: functional; settings: SK-MEL-5, 48 h, read-out: Activity
HOP-62 = test: Growth inhibition of human HOP62 cells assessed as cell growth at 10 uM incubated for 48 hrs by sulforhodamine B assay relative to control; type: functional; settings: HOP-62, 48 h, read-out: Activity
LOX IMVI = test: Growth inhibition of human LOXIMVI cells assessed as cell growth at 10 uM incubated for 48 hrs by sulforhodamine B assay relative to control; type: functional; settings: read-out: Activity
RXF 393 = test: Growth inhibition of human RXF393 cells assessed as cell growth at 10 uM incubated for 48 hrs by sulforhodamine B assay relative to control; type: functional; settings: RXF 393, 48 h, read-out: Activity
A549 = test: Growth inhibition of human A549/ATCC cells assessed as cell growth at 10 uM incubated for 48 hrs by sulforhodamine B assay relative to control; type: functional; settings: A549, 48 h, read-out: Activity
HT-29 = test: Growth inhibition of human HT-29 cells assessed as cell growth at 10 uM incubated for 48 hrs by sulforhodamine B assay relative to control; type: functional; settings: HT-29, 48 h, read-out: Activity
SNB-19 = test: Growth inhibition of human SNB19 cells assessed as cell growth at 10 uM incubated for 48 hrs by sulforhodamine B assay relative to control; type: functional; settings: SNB-19, 48 h, read-out: Activity
SK-MEL-2 = test: Growth inhibition of human SK-MEL-2 cells assessed as cell growth at 10 uM incubated for 48 hrs by sulforhodamine B assay relative to control; type: functional; settings: SK-MEL-2, 48 h, read-out: Activity
SF-295 = test: Growth inhibition of human SF295 cells assessed as cell growth at 10 uM incubated for 48 hrs by sulforhodamine B assay relative to control; type: functional; settings: SF-295, 48 h, read-out: Activity

Receptor tyrosine-protein kinase erbB-2 (Homo sapiens), sequence (P04626 whole entry, the tested form may be a part): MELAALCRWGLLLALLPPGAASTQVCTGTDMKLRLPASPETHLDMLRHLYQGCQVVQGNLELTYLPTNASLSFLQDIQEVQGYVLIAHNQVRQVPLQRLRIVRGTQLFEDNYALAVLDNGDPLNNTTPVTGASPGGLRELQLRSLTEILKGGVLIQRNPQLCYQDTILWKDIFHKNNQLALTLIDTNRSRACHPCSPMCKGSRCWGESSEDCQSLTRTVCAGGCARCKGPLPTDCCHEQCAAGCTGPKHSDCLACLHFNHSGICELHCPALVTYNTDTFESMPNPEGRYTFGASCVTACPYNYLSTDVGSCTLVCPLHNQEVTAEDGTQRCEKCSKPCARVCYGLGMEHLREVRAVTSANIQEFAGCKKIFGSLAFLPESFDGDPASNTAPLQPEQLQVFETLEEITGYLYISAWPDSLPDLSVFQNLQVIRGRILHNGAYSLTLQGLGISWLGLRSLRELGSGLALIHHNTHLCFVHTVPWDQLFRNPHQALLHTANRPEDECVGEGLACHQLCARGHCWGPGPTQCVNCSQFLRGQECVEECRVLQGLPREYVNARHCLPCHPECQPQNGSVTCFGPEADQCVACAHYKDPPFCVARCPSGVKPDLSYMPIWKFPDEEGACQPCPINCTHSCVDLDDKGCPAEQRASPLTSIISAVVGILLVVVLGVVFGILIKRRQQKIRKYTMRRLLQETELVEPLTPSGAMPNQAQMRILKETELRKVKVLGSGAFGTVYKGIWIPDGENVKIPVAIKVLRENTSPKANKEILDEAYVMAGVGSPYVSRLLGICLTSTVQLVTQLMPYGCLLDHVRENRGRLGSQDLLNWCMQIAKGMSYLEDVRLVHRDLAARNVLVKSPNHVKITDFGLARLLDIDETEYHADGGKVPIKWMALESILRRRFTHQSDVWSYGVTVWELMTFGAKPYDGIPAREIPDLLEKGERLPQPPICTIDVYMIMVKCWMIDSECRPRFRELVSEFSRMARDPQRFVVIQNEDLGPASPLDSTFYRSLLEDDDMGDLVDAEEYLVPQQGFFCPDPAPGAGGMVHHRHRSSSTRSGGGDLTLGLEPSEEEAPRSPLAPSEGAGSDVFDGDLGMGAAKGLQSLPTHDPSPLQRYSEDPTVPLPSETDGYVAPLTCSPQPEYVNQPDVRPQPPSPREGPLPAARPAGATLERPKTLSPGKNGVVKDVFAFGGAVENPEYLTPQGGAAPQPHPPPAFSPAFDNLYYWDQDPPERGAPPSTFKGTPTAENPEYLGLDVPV

## CCOC(=O)c1c(C)oc2ncnc(Nc3ccc(OCc4ccc(Cl)c(Cl)c4)cc3)c12
HOP-92
  growth at 10 µM: 116%
T47D
  growth at 10 µM: 90.1%
NCI/ADR-RES
  growth at 10 µM: 103%
U-251
  growth at 10 µM: 104%
OVCAR-3
  growth at 10 µM: 118%
SNB-75
  growth at 10 µM: 102%
[1]
  inhibition: 13%
RPMI-8226
  growth at 10 µM: 117%
CAKI-1
  growth at 10 µM: 96.1%
OVCAR-4
  growth at 10 µM: 121%
SK-MEL-28
  growth at 10 µM: 102%
MDA-MB-435
  growth at 10 µM: 111%
PC-3
  growth at 10 µM: 103%
KM12
  growth at 10 µM: 102%
DU-145
  growth at 10 µM: 108%
HCT-116
  growth at 10 µM: 94.5%
Malme-3M
  growth at 10 µM: 131%
SW-620
  growth at 10 µM: 105%
TK-10
  growth at 10 µM: 88.5%
SK-MEL-5
  growth at 10 µM: 103%
HOP-62
  growth at 10 µM: 101%
LOX IMVI
  growth at 10 µM: 95.1%
RXF 393
  growth at 10 µM: 101%
A549
  growth at 10 µM: 95.8%
HT-29
  growth at 10 µM: 99.7%
SNB-19
  growth at 10 µM: 103%
SK-MEL-2
  growth at 10 µM: 103%
SF-295
  growth at 10 µM: 94.7%

## Cc1oc2ncnc(Nc3ccc(OCc4cccc(F)c4)c(Cl)c3)c2c1C(=O)NCCO
HOP-92
  growth at 10 µM: 41.9%
T47D
  growth at 10 µM: 34.7%
NCI/ADR-RES
  growth at 10 µM: 70.8%
U-251
  growth at 10 µM: 48.1%
OVCAR-3
  growth at 10 µM: 78.1%
SNB-75
  growth at 10 µM: 40.5%
[1]
  inhibition: 6%
RPMI-8226
  growth at 10 µM: 70.2%
CAKI-1
  growth at 10 µM: 74.2%
OVCAR-4
  growth at 10 µM: 66.9%
SK-MEL-28
  growth at 10 µM: 50.6%
MDA-MB-435
  growth at 10 µM: 62.6%
PC-3
  growth at 10 µM: 57.5%
KM12
  growth at 10 µM: 68.9%
DU-145
  growth at 10 µM: 61.7%
HCT-116
  growth at 10 µM: 64.9%
Malme-3M
  growth at 10 µM: 52.3%
SW-620
  growth at 10 µM: 93.4%
TK-10
  growth at 10 µM: 74.7%
SK-MEL-5
  growth at 10 µM: 73.1%
HOP-62
  growth at 10 µM: 51.1%
LOX IMVI
  growth at 10 µM: 61.5%
RXF 393
  growth at 10 µM: 60%
A549
  growth at 10 µM: 53.5%
HT-29
  growth at 10 µM: 73%
SNB-19
  growth at 10 µM: 34.3%
SK-MEL-2
  growth at 10 µM: 78.5%
SF-295
  growth at 10 µM: 49.5%

## CCOC(=O)c1c(C)oc2ncnc(Nc3ccc(OCc4cccc(F)c4)cc3)c12
HOP-92
  growth at 10 µM: 104%
T47D
  growth at 10 µM: 91%
NCI/ADR-RES
  growth at 10 µM: 86.2%
U-251
  growth at 10 µM: 96.1%
OVCAR-3
  growth at 10 µM: 104%
SNB-75
  growth at 10 µM: 119%
[1]
  inhibition: 19%
RPMI-8226
  growth at 10 µM: 104%
CAKI-1
  growth at 10 µM: 80.1%
OVCAR-4
  growth at 10 µM: 102%
SK-MEL-28
  growth at 10 µM: 96.9%
MDA-MB-435
  growth at 10 µM: 103%
PC-3
  growth at 10 µM: 75%
KM12
  growth at 10 µM: 92.9%
DU-145
  growth at 10 µM: 94.9%
HCT-116
  growth at 10 µM: 78.1%
Malme-3M
  growth at 10 µM: 125%
SW-620
  growth at 10 µM: 88.9%
TK-10
  growth at 10 µM: 82.7%
SK-MEL-5
  growth at 10 µM: 93.4%
HOP-62
  growth at 10 µM: 87.8%
LOX IMVI
  growth at 10 µM: 85.3%
RXF 393
  growth at 10 µM: 116%
A549
  growth at 10 µM: 76.4%
HT-29
  growth at 10 µM: 92.7%
SNB-19
  growth at 10 µM: 99.5%
SK-MEL-2
  growth at 10 µM: 102%
SF-295
  growth at 10 µM: 82.7%
